Among the data in patent US20260022143A1, “Cyclic Peptide Inhibitors of IL-23” (JANSSEN PHARMACEUTICA NV, priority 2022, published 2026) are IC50 and EPSA values, retold here.

Structures are written as SMILES. Starred links: 1 amine or outer side, 2 acyl side, 3 side chain; linkers in the order of their positions; H or OH if unused. Positions of bridges follow the written chain, without caps; N, C: chain ends. Non-standard residues stand in square brackets, D forms with d. Residues, ends and D or L forms follow the SMILES beside them. *: point of attachment. Me3N+(CH2)2O(CH2)2O(CH2)2CO = C[N+](C)(C)CCOCCOCCC(=O)*; CH2CH2OCH2CH2OCH2CH2NMe3+ = C[N+](C)(C)CCOCCOCC*; Trp(7-Me) = Cc1cccc2c(C[C@H](N)C(=O)O)c[nH]c12; X15 = CC(=O)N(C)C[C@H](N[*:1])C(=O)[*:2]; 2Nal = N[C@@H](Cc1ccc2ccccc2c1)C(=O)O; 3Pal = N[C@@H](Cc1cccnc1)C(=O)O; Lys(Me) = CNCCCC[C@H](N)C(=O)O; Pen = CC(C)(S)[C@H](N)C(=O)O; Thp = NC1(C(=O)O)CCOCC1; X3 = C[N+](C)(C)CCCCC*; Sar = CNCC(=O)O

One series addresses T1, IL-23R (Homo sapiens, UniProt Q5VWK5).
T1 construct: host or cells: HEK293
T1 sequence (Q5VWK5 24-629): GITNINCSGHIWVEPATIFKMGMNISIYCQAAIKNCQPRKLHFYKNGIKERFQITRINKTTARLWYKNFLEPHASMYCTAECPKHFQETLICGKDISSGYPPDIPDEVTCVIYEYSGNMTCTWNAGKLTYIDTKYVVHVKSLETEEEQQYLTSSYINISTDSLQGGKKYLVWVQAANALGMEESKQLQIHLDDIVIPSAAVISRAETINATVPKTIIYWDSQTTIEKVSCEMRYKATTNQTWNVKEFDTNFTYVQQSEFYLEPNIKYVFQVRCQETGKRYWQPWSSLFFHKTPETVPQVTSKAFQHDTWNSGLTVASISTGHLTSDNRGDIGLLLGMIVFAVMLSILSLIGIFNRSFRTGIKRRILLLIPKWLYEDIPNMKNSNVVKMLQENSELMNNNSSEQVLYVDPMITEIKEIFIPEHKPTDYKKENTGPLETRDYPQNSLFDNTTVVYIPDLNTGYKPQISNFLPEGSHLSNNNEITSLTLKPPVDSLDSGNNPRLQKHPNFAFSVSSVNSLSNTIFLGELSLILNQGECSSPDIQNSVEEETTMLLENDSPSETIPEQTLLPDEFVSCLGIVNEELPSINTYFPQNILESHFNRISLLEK
Briefly: IL23R Reporter Assay. In kind it is cell-based. The following applies: HEK293 cells containing IL-23R, IL-12RP1 and STAT-inducible firefly luciferase reporter; 10 ng/mL IL-23 (EC90); 5 h at 37° C.; read-out: IL23R Reporter Assay. (A reporter such as luciferase makes a cellular process visible.)

Series [1] is described as follows: Exposed Polar Surface Area (EPSA). The following applies: SFC on Chirex 3014 column; sample 1 mM DMSO stock; read-out: EPSA. In kind it is physicochemical. Summed up: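 Chirex 3014 column, 35 °C, 4 mL/min; CO2/MeOH + 20 mM NH4 formate, 5→60% modifier at 20%/min. UV/MS detection. EPSA (Å^2) from retention time vs 8-standard calibration line; duplicates; 1 mM DMSO stock injected undiluted.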

In the case of `CC(=O)NCCCC[C@@H]1NC(=O)[C@H](Cc2c[nH]c3c(C)cccc23)NC(=O)[C@H]([C@@H](C)O)NC(=O)[C@H](CC(=O)N(C)C)NC(=O)[C@@H](NC(=O)CCOCCOCC[N+](C)(C)C)C(C)(C)SSC(C)(C)[C@@H](C(=O)N[C@@H](Cc2ccc(OCCCCC[N+](C)(C)C)cc2)C(=O)N[C@@H](Cc2ccc3ccccc3c2)C(=O)NC2(C(=O)N[C@@H](CN(C)C(C)=O)C(=O)N[C@@H](CC(N)=O)C(=O)N[C@@H](Cc3cccnc3)C(=O)N(C)CC(=O)N(C)C)CCOCC2)NC1=O` [compound 415, cPEG3aCO-Pen(3)-N(N(Me)2)-T-7MeW-K(Ac)-Pen(3)-TMAPF-2Nal-THP-Dap(NMeAc)-N-3Pya-Sar-CON(Me)2] ({Me3N+(CH2)2O(CH2)2O(CH2)2CO}-[Pen]D(NMe2)T[Trp(7-Me)]K(Ac)[Pen]Y(X3)[2Nal][Thp][X15]N[3Pal][Sar]-NMe2; disulfide 1-6 (inferred)), at IL-23R, the IC50 was 4.4 nM. In addition, in series [1], the EPSA came to 148 A^2.

In the case of `CC(=O)NCCCC[C@@H]1NC(=O)[C@H](Cc2c[nH]c3c(C)cccc23)NC(=O)[C@H]([C@@H](C)O)NC(=O)[C@H](CC(N)=O)NC(=O)[C@@H](NC(=O)CCOCCOCC[N+](C)(C)C)C(C)(C)SSC(C)(C)[C@@H](C(=O)N[C@@H](Cc2ccc(OCCCCC[N+](C)(C)C)cc2)C(=O)N[C@@H](Cc2ccc3ccccc3c2)C(=O)NC2(C(=O)N[C@@H](CCCCNC(C)=O)C(=O)N[C@@H](CC(N)=O)C(=O)N[C@@H](Cc3cccnc3)C(=O)N(C)CC(N)=O)CCOCC2)NC1=O` [compound 428, cPEG3aCO-Pen(3)-N-T-7MeW-K(Ac)-Pen(3)-TMAPF-2Nal-THP-K(Ac)-N-3Pya-Sar-CONH2] ({Me3N+(CH2)2O(CH2)2O(CH2)2CO}-[Pen]NT[Trp(7-Me)]K(Ac)[Pen]Y(X3)[2Nal][Thp]K(Ac)N[3Pal][Sar]-NH2; disulfide 1-6), on IL-23R, the IC50 was determined as 3.5 nM. Also, the EPSA in series [1] turned out to be 161 A^2.

For the molecule `CNC(=O)C[C@@H]1NC(=O)[C@@H](NC(=O)CCOCCOCC[N+](C)(C)C)C(C)(C)SSC(C)(C)[C@@H](C(=O)N[C@@H](Cc2ccc(OCCCCC[N+](C)(C)C)cc2)C(=O)N[C@@H](Cc2ccc3ccccc3c2)C(=O)NC2(C(=O)N[C@@H](CCCCN(C)C(C)=O)C(=O)N[C@@H](CC(N)=O)C(=O)N[C@@H](Cc3cccnc3)C(=O)N(C)CC(=O)N(C)C)CCOCC2)NC(=O)[C@H](CCCCN(C)C(C)=O)NC(=O)[C@H](Cc2c[nH]c3c(C)cccc23)NC(=O)[C@H]([C@@H](C)O)NC1=O` [compound 300, cPEG3aCO-Pen(3)-N(N(Me))-T-7MeW-K(NMeAc)-Pen(3)-TMAPF-2Nal-THP-K(NMeAc)-N-3Pya-Sar-CON(Me)2] ({Me3N+(CH2)2O(CH2)2O(CH2)2CO}-[Pen]D(NHMe)T[Trp(7-Me)][Lys(Me)](Ac)[Pen]Y(X3)[2Nal][Thp][Lys(Me)](Ac)N[3Pal][Sar]-NMe2; disulfide 1-6), the IC50 on IL-23R was determined as 2.1 nM. In addition, in series [1], the EPSA amounted to 153 A^2.

Regarding `CC(=O)NCCCC[C@H](NC(=O)C1(NC(=O)[C@H](Cc2ccc3ccccc3c2)NC(=O)[C@H](Cc2ccc(OCCOCCOCC[N+](C)(C)C)cc2)NC(=O)[C@H]2NC(=O)[C@H](CCCCN(C)C(C)=O)NC(=O)[C@H](Cc3c[nH]c4c(C)cccc34)NC(=O)[C@H]([C@@H](C)O)NC(=O)[C@H](CC(=O)N(C)C)NC(=O)[C@@H](NC(=O)CCOCCOCC[N+](C)(C)C)C(C)(C)SSC2(C)C)CCOCC1)C(=O)N[C@@H](CC(N)=O)C(=O)N[C@@H](Cc1cccnc1)C(=O)N(C)CC(=O)N(C)C` [compound 233, cPEG3aCO-Pen(3)-N(N(Me)2)-T-7MeW-K(NMeAc)-Pen(3)-APEG3F-2Nal-THP-K(Ac)-N-3Pya-Sar-CON(Me)2] ({Me3N+(CH2)2O(CH2)2O(CH2)2CO}-[Pen]D(NMe2)T[Trp(7-Me)][Lys(Me)](Ac)[Pen]Y(CH2CH2OCH2CH2OCH2CH2NMe3+)[2Nal][Thp]K(Ac)N[3Pal][Sar]-NMe2; disulfide 1-6), the IC50 on IL-23R amounted to 3 nM. Besides, the EPSA in series [1] is 141 A^2.
